Test results published in patent US8044054B2, “Stereoisomerically enriched 3-aminocarbonyl bicycloheptene pyrimidinediamine compounds and their uses” (Rigel Pharmaceuticals, Inc., priority 2004, dated 2011).
Counter-ions that a name gives are not always drawn. Like-named read-outs stand apart in the source and are kept apart here.

How the values were obtained:
Colo205 tumors = system: Colo205 tumors
Description: (§1) Compound 60a.2HCl, was tested for its ability to shrink A549 and Colo205 tumors in a standard xenograft therapeutic model in SCID mice, and Colo205 and MiaPaCa tumors in a standard xenograph regression model in SCID mice. When palpable tumors appeared and were of a preselected volume (approx. 100 mm3 for treatment model; >300 mm3 for regression model), the mice were administered test compounds in the amounts and according to the dosing regimens specified in TABLE 3 (treatment protocol) and TABLE 4 (regression protocol), below.

MiaPaCa tumors = details: regression model, 10 mg/kg/day daily (3 cycles), oral or i.p.
Description: as §1

A549 tumors = details: A549, treatment model, 5 days on/2 days off, 10 mg/kg qd, p>0.05
Description: as §1

A549 (lung carcinoma) = assay: In vitro antiproliferation assay, A549; type: cell-based
H7299 = assay: In vitro antiproliferation assay, H7299; type: cell-based
[1] = system: DU145 (prostate carcinoma); assay: In vitro antiproliferation assay, DU145; type: cell-based
[2] = system: H460 (large cell lung carcinoma); details: read-out: In Vitro IC50
Description: Compounds 60r1, 60r2, 60r1.2HCl, 60a, 60b and 60a.HCl were tested against a variety of different types of tumor cells for their ability to inhibit proliferation using standard in vitro antiproliferation assays.

[3] = system: H1299 (non-small cell lung carcinoma); assay: In vitro antiproliferation assay, H1299; type: cell-based
[4] = system: THP-1 (monocyte acute monocytic leukemia); assay: In vitro antiproliferation assay, THP-1; type: cell-based
[5] = system: PC3 (prostate adenocarcinoma); assay: In vitro antiproliferation assay, PC3; type: cell-based
U2OS (bone osteosarcoma) = assay: In vitro antiproliferation assay, U2OS; type: cell-based; details: U20S
[6] = system: SW620 (colorectal adenocarcinoma); assay: In vitro antiproliferation assay, SW620; type: cell-based
[7] = system: ASPC-1 (pancreatic adenocarcinoma); assay: In vitro antiproliferation assay, ASPC-1; type: cell-based; details: ASPC1
[8] = system: K562 (bone marrow chronic myelogenous leukemia); assay: In vitro antiproliferation assay, K562; type: cell-based
[9] = system: L1210 (mouse lymphocytic leukemia); assay: In vitro antiproliferation assay, L1210; type: cell-based
[10] = system: variety of different tumor cell lines; assay: In vitro antiproliferation assays, summary over the tumor cell lines tested; type: cell-based; details: for IC50's against tumor cell lines, tested as isolated stereoisomers: general range over the cell lines
Excerpt: The cis racemate of structural formula (IIa) can be referred to as the 2-exo-3-exo racemate, and includes the (1R,2R,3S,4S) and (1S,2S,3R,4R) diastereomers of structural formulae (Ia) and (Ib), respectively. The cis racemate of structural formula (IIb) can be referred to as the 2-endo-3-endo racemate, and includes the (1R,2S,3R,4S) and (1S,2R,3S,4R) diastereomers of structural formulae (Ic) and (Id), respectively. […] Moreover, it has been discovered that the (1R,2R,3S,4S) diastereomer of racemate r1 is largely responsible for the potency of the racemate r1.

Aurora kinase-B = molecular target: T1, Aurora kinase-B (Homo sapiens, UniProt Q96GD4); assay: Functional cellular assay of Aurora kinase-B, phosphorylation of histone H3 in A549 cells; type: cell-based
T1 construct: endogenous in cells; host or cells: A549 cells
T1 sequence (Q96GD4 whole entry): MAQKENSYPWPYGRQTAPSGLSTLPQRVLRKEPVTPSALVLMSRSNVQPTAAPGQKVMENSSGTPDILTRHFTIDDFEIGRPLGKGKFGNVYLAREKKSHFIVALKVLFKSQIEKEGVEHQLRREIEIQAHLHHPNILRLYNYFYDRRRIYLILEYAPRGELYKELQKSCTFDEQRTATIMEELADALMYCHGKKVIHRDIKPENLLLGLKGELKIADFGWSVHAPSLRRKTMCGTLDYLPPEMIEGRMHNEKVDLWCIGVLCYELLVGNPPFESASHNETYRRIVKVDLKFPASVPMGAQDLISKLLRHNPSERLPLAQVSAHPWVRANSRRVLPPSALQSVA
Description: Compounds 60a and 60b were tested for their ability to inhibit Aurora kinase-B in a functional cellular assay involving phosphorylation of its substrate, histone H3. For the assay, A549 cells were seeded into the wells of a microtiter tray (5000 cells/well in 100 μl F12K media) late in the afternoon on Day 1. The cells were grown overnight (37° C., 5% CO2). On Day 2, 50 μl nocodazole (1 μM in media) was added to each well, giving a final concentration of 333 nM. Cells were grown for an additional 18 hrs under the same conditions.
On Day 3, 50 μl aliguots of varying concentrations of test compound were added to the wells. […] The cells were then stained with a secondary antibody labeled with a fluorescent dye (secondary antibody donkey anti-mouse AlexFluor 488 (Invitrogen Molecular Probes; 1:2000) and DAPI (1:15,000 of 1 mg/ml stock) for 1 hr at room temperature, washed three times with DPBS (200 μl/well) and stored under DPBS (100 μl/well) at 4° C. until ready for analysis.
A Zeiss Axiovert S100 inverted fluorescent microscope with a Plan-NEOFLUAR 10× objective, a Hamamatsu Lightningcure 200 Mercury-Xenon light source and an Omega Optical XF57 quad filter was used for all data collection. […] Images were captured and analyzed in 12-bit format using segmentation and morphological routines contained in the Image Pro software package. […]

[11] = system: SU86.86 (pancreatic carcinoma); assay: In vitro antiproliferation assay, SU86.86; type: cell-based; details: Homo sapiens, SU.86.86
[12] = Pharmacokinetics in monkeys, plasma concentration over time; type: in vivo
Description: Compound 60a was administered to monkeys intravenously (1 mg/kg in saline) and orally (5 mg/kg in saline) and the plasma concentrations monitored over time.

[13] = system: SK-OV-3 (ovarian adenocarcinoma); assay: In vitro antiproliferation assay, SK-OV-3; type: cell-based; details: Homo sapiens, SKOV3

## Cc1cc(Nc2ncc(F)c(N[C@H]3[C@@H](C(N)=O)[C@@H]4C=C[C@H]3C4)n2)ccc1N1CCN(C)CC1.Cl.Cl [Compound 60a.2HCl, (1R,2R,3S,4S)—N-4-(3-aminocarbonylbicyclo[2.2.1]hept-5-ene-2-yl)-5-fluoro-N2-[3-methyl-4-(4-methylpiperazin-1-yl)phenyl]-2,4-pyrimidinediamine bis hydrogen chloride salt]
Colo205 tumors; Colo205, regression model, 10 mg/kg/day oral daily (13 days)
  tumor growth rate: Significant reductions in tumor growth rate
Colo205 tumors; Colo205, treatment model, daily and pulsed dosing regimens, all dosage levels tested (2 and 10 mg/kg/day oral)
  tumor growth rate compared to vehicle control: significant (p<0.050) reductions in tumor growth rate
MiaPaCa tumors
  tumor growth rate: Significant reductions in tumor growth rate
A549 tumors
  reduction in mean tumor volume: ~40%
A549 (lung carcinoma)
  IC50: < 10 nM
H7299
  IC50: 20 to 1000 nM
[1]
  IC50: 20 to 1000 nM
[2]
  IC50: < 10 nM
[3]
  IC50: 20 to 1000 nM

## Cc1cc(Nc2ncc(F)c(NC3C4C=CC(C4)C3C(N)=O)n2)ccc1N1CCN(C)CC1 (racemic) [Compound 60r1, 2-exo-3-exo racemic N4-(3-aminocarbonylbicyclo[2.2.1]hept-5-ene-2-yl)-5-fluoro-N2-[3-methyl-4-(4-methylpiperazin-1-yl)phenyl]-2,4-pyrimidinediamine]
[4]
  IC50: 20 to 1000 nM
[5]
  IC50: 10 to 20 nM
U2OS (bone osteosarcoma)
  IC50: 10 to 20 nM
[6]
  IC50: 20 to 1000 nM
A549 (lung carcinoma)
  IC50: 10 to 20 nM
H7299
  IC50: 10 to 20 nM
[7]
  IC50: 10 to 20 nM
[1]
  IC50: 10 to 20 nM
[8]
  IC50: 20 to 1000 nM
[9]
  IC50: 20 to 1000 nM

## Cc1cc(Nc2ncc(F)c(N[C@@H]3[C@H](C(N)=O)[C@H]4C=C[C@@H]3C4)n2)ccc1N1CCN(C)CC1 [Compound 60b, (1S,2S,3R,4R)—N-4-(3-Aminocarbonylbicyclo[2.2.1]hept-5-en-2-yl)-5-fluoro-N2-[3-methyl-(4-methylpiperazin-1-yl)phenyl]-2,4-pyrimidinediamine]
[10]
  IC50's against tumor cell lines, tested as isolated stereoisomers: micromolar range
Aurora kinase-B
  IC50 of 60b relative to its enantiomer 60a: approx. 350 times greater
[4]
  IC50: 20 to 1000 nM
U2OS (bone osteosarcoma)
  IC50: 20 to 1000 nM
[1]
  IC50: 20 to 1000 nM

## Cc1cc(Nc2ncc(F)c(NC3C4C=CC(C4)C3C(N)=O)n2)ccc1N1CCN(C)CC1 (racemic) [Compound 60r1.2HCl, 2-exo-3-exo racemic N4-(3-aminocarbonylbicyclo[2.2.1.]hept-5-ene-2-yl)-5-fluoro-N2-[3-methyl-4-(4-methylpiperazin-1-yl)phenyl]-2,4-pyrimidinediamine bis hydrogen chloride salt]
A549 (lung carcinoma); listed as 60r1-2HCl
  IC50: 20 to 1000 nM
H7299; listed as 60r1-2HCl
  IC50: 20 to 1000 nM
[3]
  IC50: 20 to 1000 nM

## Cc1cc(Nc2ncc(F)c(N[C@H]3[C@@H](C(N)=O)[C@@H]4C=C[C@H]3C4)n2)ccc1N1CCN(C)CC1 [Compound 60a, (1R,2R,3S,4S)—N-4-(3-aminocarbonylbicyclo[2.2.1]hept-5-ene-2-yl)-5-fluoro-N2-[3-methyl-4-(4-methylpiperazin-1-yl)phenyl]-2,4-pyrimidinediamine]
[10]
  IC50's against tumor cell lines, tested as isolated stereoisomers: nanomolar range
[10]; in general, same cell lines
  potency relative to the (1S,2S,3R,4R) enantiomer: ~1000 fold
[11]
  IC50: 10 to 20 nM
[4]; Homo sapiens
  IC50: 20 to 1000 nM
[6]; Homo sapiens, SW-620
  IC50: 10 to 20 nM
[12]; intravenously, 1 mg/kg in saline
  time plasma concentration remained above the IC50 of 7 nM: 11 h
[12]; orally, 5 mg/kg in saline
  time plasma concentration was maintained above the IC50: over 20 hrs
H7299
  IC50: 10 to 20 nM
[1]; Homo sapiens, DU-145
  IC50: 10 to 20 nM
[8]; Homo sapiens
  IC50: 20 to 1000 nM
[9]; Mus musculus
  IC50: 10 to 20 nM
[13]
  IC50: 10 to 20 nM
